Source: patent US9645147B2, “Recombinant polypeptide construct comprising Plasmodium falciparum circumsporozoite protein HLA class I restricted T-cell epitopes” (priority 2013, dated 2017)
Entries after “also recorded” stand apart in the source; their conditions may differ.

Test system: PBMC from volunteers immunized with Ad-CA or Ad-C
Experiment: IFN-γ ELISpot assay with cryopreserved PBMC of immunized volunteers
Format: cell-based, human
Details: for 15 mer sfc/m: Table 2, individual 15mer at 10 μg/mL; for ELISpot response to individual 15mer peptide (in words): volunteers immunized with Ad-CA or Ad-C; for Epitope sfc/m: Table 4; for ELISpot response to synthesized epitope (in words): volunteers, positive = p<0.05, at least doubling and at least ten sfc over negative control
Method: Previous studies have confirmed that recall-T cell responses, as assayed by ELISpot, are detected using cryopreserved PBMCs although such responses are generally of a lower magnitude than fresh cells (Sedegah, et al., Malar J., 9: 241 (2011)).
The positive control was commercially obtained Class I Peptide Pool Plus (Anaspec, USA). Negative control was media with all supplements but no antigen-specific stimulant.
Throughout the studies, IFN-γ ELISpot assays were conducted as previously described (Sedegah, et al., Malar J., 9: 241 (2011); Wang, et al., PNAS (USA), 98: 10817-22 (2001)). Cryopreserved PBMC were suspended in 100 μL complete medium and stimulated with CSP peptides in 100 μL of complete medium at a final concentration of 10 μg/mL of each peptide tested (Wang, et al., PNAS (USA), 98: 10817-22 (2001)).
Cultures were incubated for 36 hours at 37° C., 5% CO2. Depending on availability of cells, each PBMC sample was assayed in duplicate, triplicate, or quadruplicate and the number of IFN-γ-secreting spot forming cells (sfc) was counted using an automated ELISpot reader (AID, GmbH, Germany). In duplicate assays, all values were used in analysis. […] The mean number of sfcs obtained in negative control wells was subtracted from the value of each test well from the same sample. Negative counts generated by this background subtraction were converted to zero. The mean number of spots of the test sample was then calculated and expressed as spot forming cells/million (sfc/m). A positive response was defined as a significant difference (p=<0.05) between average of the number of spot forming cells (sfc) in test wells and the average of negative control wells (Student's two tailed t-test), and at least a doubling of sfc in test wells relative to negative control wells, and a difference of at least ten sfc between test and negative control wells (Sedegah, et al., PLoS One, 6: e24586 (2011)).

## FLFVEALFQEYQCYG [Cp1-C4, 15mer CSP peptide aa 13-27]
Volunteer 01 (Ad-CA)
  15 mer sfc/m: 48 sfc/m
Volunteer 05 (Ad-CA)
  15 mer sfc/m: 44 sfc/m
Volunteer 12 (Ad-CA)
  15 mer sfc/m: 87 sfc/m
Volunteer 69 (Ad-C)
  15 mer sfc/m: 368 sfc/m
  ELISpot response to individual 15mer peptide (in words): positive

## IMVLSFLFL (listed as Plasmodium falciparum) [Epitope E21, CSP aa 388-396]
Volunteer 125 (Ad-CA), synthesized 8-10mer epitope
  Epitope sfc/m: 29 sfc/m
  ELISpot response to synthesized epitope (in words): low to modest response; also recorded: demonstrated activity

## KCSSVFNVVNSSIGL [Cp9-C62, 15mer CSP peptide aa 373-387]
Volunteer 01 (Ad-CA)
  15 mer sfc/m: 116 sfc/m

## KEYLNKIQNSLSTEW [Cp6-C48]
Volunteer 05 (Ad-CA)
  15 mer sfc/m: 106 sfc/m
Volunteer 41 (Ad-C)
  15 mer sfc/m: 103 sfc/m
Volunteer 58 (Ad-C)
  15 mer sfc/m: 45 sfc/m
  ELISpot response to individual 15mer peptide (in words): positive

## NELEMNYYGKQENWY [Cp2-C13, 15mer CSP peptide aa 49-63]
Volunteer 01 (Ad-CA)
  15 mer sfc/m: 116 sfc/m
Volunteer 12 (Ad-CA)
  15 mer sfc/m: 334 sfc/m

## QEYQCYGSSSNTRVL [Cp1-C6, 15mer CSP peptide aa 21-35]
Volunteer 58 (Ad-C)
  15 mer sfc/m: 83 sfc/m

## SSIGLIMVLSFLFLN [Cp9-C65, 15mer CSP peptide aa 383-397]
Volunteer 01 (Ad-CA)
  15 mer sfc/m: 46 sfc/m
Volunteer 02 (Ad-CA)
  15 mer sfc/m: 44 sfc/m
Volunteer 08 (Ad-CA)
  15 mer sfc/m: 62 sfc/m

## SVFNVVNSSI [Epitope E13]
Volunteer 37 (Ad-C), synthesized epitope, single value or first of two assays
  Epitope sfc/m: 28 sfc/m
Volunteer 58 (Ad-C), synthesized 8-10mer epitope
  Epitope sfc/m: 80 sfc/m
  ELISpot response to synthesized epitope (in words): positive; also recorded: demonstrated activity

## SVSSFLFVEALFQEY [Cp1-C3, 15mer CSP peptide aa 9-23]
Volunteer 05 (Ad-CA)
  15 mer sfc/m: 65 sfc/m
Volunteer 58 (Ad-C)
  15 mer sfc/m: 29 sfc/m
Volunteer 69 (Ad-C)
  15 mer sfc/m: 385 sfc/m
  ELISpot response to individual 15mer peptide (in words): positive

## TNLYNELEMNYYGKQ [Cp2-C12, 15mer CSP peptide aa 45-59]
Volunteer 01 (Ad-CA)
  15 mer sfc/m: 119 sfc/m
Volunteer 12 (Ad-CA)
  15 mer sfc/m: 411 sfc/m

## VFNVVNSSIGLIMVL [Cp9-C63, 15mer CSP peptide aa 377-391]
Volunteer 08 (Ad-CA)
  15 mer sfc/m: 109 sfc/m
Volunteer 61 (Ad-C)
  15 mer sfc/m: 80 sfc/m
  ELISpot response to individual 15mer peptide (in words): positive

## VNSSIGLIMVLSFLF [Cp9-C64, 15mer CSP peptide aa 381-395]
Volunteer 08 (Ad-CA)
  15 mer sfc/m: 91 sfc/m
